Patent publication EP3820512B1, “IMMUNOMODULATING COMPOSITIONS COMPRISING OLIGOSACCHARIDE DERIVATIVES” (priority 2018, dated 2020)

Columns and labels:
TLR4 = TLR4 (Homo sapiens, UniProt O00206); test: TLR4 inhibitory and activating activity in THP-1 cells at low and high concentrations; assay type: cell-based; design: endogenous in cells; host or cells: THP-1 (human monocytic) cells; conditions: for % inhibition over control TLR4 / % activation over control TLR4: THP-1 cells; for TLR2/4 antagonist activity: as shown in Table-1 (FIG. 1), TLR2 and TLR4
[1] = tested on: THP-1 (human monocytic) cells; test: Cytokine response (IL-1β, TNF-α, IL-10) of THP-1 cells treated with compounds; assay type: cell-based; conditions: 100-200 µM
Experimental: When THP-1 (human monocytic) cells were treated with 100-200 µM of compounds 8, 14, 17, 23, 29, and 32, they produced an increased IL-1β and TNF-α response, decreased anti-inflammatory cytokine IL-10 (FIG. 4).

HUVECs = test: Cytotoxicity in HUVECs, MTT cell proliferation kit; assay type: cell-based, human; conditions: 100 µM, 24h
Experimental: Selected TLR2/4 antagonist compounds 2, 6, 7, 8, 14, 17 and 32 were evaluated for cytotoxicity in HUVECs at 100 µM concentration. The cells were treated with compounds and incubated for 24h. Cell viability was assessed using MTT cell proliferation kit (Promega). All the compounds were not toxic to HUVECs (FIG. 15).

hPBMC = test: Cytotoxicity in hPBMC, MTT cell proliferation kit; assay type: cell-based, human; conditions: 0.1, 1.0, 10, 100 and 1000 µM, 24h
Experimental: The cells were treated with compounds and incubated for 24h. Cell viability was assessed using MTT cell proliferation kit (Promega).

[2] = tested on: VEGF induced tube formation in HUVECs; test: Anti-angiogenic activity, Tube Formation kit, VEGF induced; assay type: cell-based, human; conditions: VEGF 100ng/mL
Experimental: Selected TLR2/4 antagonist compounds 2, 6, 7, 8, 14, 17 and 32 were evaluated for anti-angiogenic activity using the Tube Formation kit (Cat#3470-096-K). VEGF (100ng/mL) was used as positive control. These compounds have potential applications in diseases associated with pathological angiogenesis such as solid tumor, […], diabetic retinopathy as well as AMD.

TLR2 = biological target: T1, TLR2 (Homo sapiens, UniProt O60603); test: TLR2 activity in PMA-stimulated THP-1 monocyte cells, ELISA of cell lysate; assay type: cell-based; conditions: THP-1 cells
T1 construct: endogenous in cells; host or cells: THP-1 monocyte cells stimulated with PMA
Experimental: THP-1 monocyte cells (1×10^5) were stimulated with 200nM of PMA for 48h and treated with different concentrations of test compounds. The TLR2 activity was measured after 24 h from the cell lysate using ELISA.

[3] = tested on: hyperoxia induced BPD in mouse pups; test: Hyperoxia-exposed BPD mouse model (newborn pups); assay type: in vivo
Source text: Neonatal mice and humans undergo similar stages of lung development but differ with respect to the duration of each stage and its temporal relationship to gestational age. The lungs of the mouse born at term are in the saccular stage and are surfactant sufficient; this can be considered somewhat akin to a human preterm neonate in the same stage of lung development that has been exposed to a full complement of antenatal steroids (which is known to enhance surfactant production). In terms of mimicking the human condition, the most successful hyperoxia models are those that limit exposure to hyperoxia to the saccular stage of pulmonary development. The mouse BPD model involves exposing newborn mice (postnatal day 1 or PN1) to 100% oxygen till PN4 followed by recovery in room air (RA) for another 10 days.
After the recovery period, their lungs were harvested and processed for quantitative PCR, western blotting, histopathology and ELISA.
After the recovery period, their lungs were harvested and processed for quantitative PCR, western blotting and histopathology and ELISA.
BPD is characterized by large simplified alveoli, inflammation, increased cell death, decreased cell proliferation, dysmorphic capillary configuration, and variable interstitial cellularity and/or fibroproliferation. […] This is determined by measuring the alveolar chord length, septal thickness and radial alveolar count (RAC). In BPD, the alveolar area increases which is characterized by increase in the diameter of the alveolar sacs, the septa become thickened (thus interfering in gaseous exchange) and the RAC, a parameter used to assess the complexity of terminal respiratory unit by pulmonologists, decreases as a result of arrested lung development.

[4] = tested on: P. aeruginosa (ATCC-10145 GFP) infected skin wounds; test: Murine study of skin wound infection; assay type: in vivo, C57BL6 mice
Experimental: Five groups of C57BL/6 mice (8-10 weeks old, n = 4) were wounded on the dorsal surface. 25µl containing 10^6 CFU/mL P. aeruginosa in a PBS suspension were pipetted onto the wound and allowed to absorb for at least 3 min. […] Subsequently and for the next 13 days, infected wounds were treated each alternate day with colistin, or with test compounds.
Along with that less focal inflammation is observed in compound treated groups vs PA group.

T1 sequence (O60603 21-784): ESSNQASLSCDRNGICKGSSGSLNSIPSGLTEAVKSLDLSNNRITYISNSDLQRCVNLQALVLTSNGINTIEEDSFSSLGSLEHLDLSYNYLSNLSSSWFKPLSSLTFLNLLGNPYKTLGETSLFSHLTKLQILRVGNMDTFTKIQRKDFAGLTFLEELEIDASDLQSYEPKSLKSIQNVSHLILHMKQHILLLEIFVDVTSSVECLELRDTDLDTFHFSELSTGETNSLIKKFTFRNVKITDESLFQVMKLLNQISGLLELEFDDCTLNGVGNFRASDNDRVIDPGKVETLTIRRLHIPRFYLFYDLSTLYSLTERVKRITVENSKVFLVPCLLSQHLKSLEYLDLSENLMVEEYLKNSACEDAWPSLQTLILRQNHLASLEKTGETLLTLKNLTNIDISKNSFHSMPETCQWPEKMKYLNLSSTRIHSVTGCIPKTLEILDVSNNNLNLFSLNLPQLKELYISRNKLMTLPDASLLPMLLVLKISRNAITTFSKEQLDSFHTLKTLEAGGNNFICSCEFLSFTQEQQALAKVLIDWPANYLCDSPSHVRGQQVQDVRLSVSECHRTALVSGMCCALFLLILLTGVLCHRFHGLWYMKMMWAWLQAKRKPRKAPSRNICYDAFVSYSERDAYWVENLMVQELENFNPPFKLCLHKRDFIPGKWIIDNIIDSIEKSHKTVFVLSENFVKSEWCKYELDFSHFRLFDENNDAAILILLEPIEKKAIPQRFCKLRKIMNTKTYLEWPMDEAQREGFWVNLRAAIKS
Chain of TLR4 (O00206 24-839): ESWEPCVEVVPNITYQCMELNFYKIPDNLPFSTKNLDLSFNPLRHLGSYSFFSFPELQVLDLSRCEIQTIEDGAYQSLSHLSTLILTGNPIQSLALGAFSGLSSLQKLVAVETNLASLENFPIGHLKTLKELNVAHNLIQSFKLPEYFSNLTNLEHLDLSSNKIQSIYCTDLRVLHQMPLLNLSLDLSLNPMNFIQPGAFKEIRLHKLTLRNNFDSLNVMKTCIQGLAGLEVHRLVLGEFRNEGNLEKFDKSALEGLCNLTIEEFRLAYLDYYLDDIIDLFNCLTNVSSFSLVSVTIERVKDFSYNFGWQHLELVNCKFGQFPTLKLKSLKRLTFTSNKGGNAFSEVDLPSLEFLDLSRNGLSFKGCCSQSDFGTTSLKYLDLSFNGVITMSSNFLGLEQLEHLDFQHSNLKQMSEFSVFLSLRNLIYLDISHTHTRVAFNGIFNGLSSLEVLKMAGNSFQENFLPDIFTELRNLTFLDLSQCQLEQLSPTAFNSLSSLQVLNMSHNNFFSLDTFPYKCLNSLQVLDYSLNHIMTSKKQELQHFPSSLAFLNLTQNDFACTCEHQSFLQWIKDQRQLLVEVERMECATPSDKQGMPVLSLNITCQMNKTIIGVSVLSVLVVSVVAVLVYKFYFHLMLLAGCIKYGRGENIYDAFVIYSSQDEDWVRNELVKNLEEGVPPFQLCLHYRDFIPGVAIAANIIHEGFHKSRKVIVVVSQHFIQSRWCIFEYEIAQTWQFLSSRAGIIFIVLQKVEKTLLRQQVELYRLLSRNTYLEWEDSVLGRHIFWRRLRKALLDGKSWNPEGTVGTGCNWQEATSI
Chain of TLR4 (Q9Y6Y9 17-160 partner limits assumed): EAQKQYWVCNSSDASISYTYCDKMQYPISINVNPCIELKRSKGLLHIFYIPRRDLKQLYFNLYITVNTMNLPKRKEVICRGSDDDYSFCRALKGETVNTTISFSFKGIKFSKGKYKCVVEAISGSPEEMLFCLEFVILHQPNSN

TLR2/4 antagonist activity (TLR4; summary in words)	Compound	% inhibition over control TLR4 (TLR4; Concentration 1-10 µM)	% inhibition over control TLR4 (TLR4; Concentration 75-100 µM)	% activation over control TLR4 (TLR4; Concentration 75-100 µM)	cytotoxicity in HUVECs (cell viability) (HUVECs)	cytotoxicity in hPBMC (cell viability) (hPBMC)	VEGF induced tube formation [2]	% inhibition over control TLR2 (TLR2; Concentration 1-10 µM)	% inhibition over control TLR2 (TLR2; Concentration 75-100 µM)	further results
	CC(=O)NC1[C@H](Oc2cccc3sc(NC(=O)C(C)(C)C)nc23)O[C@H](CO)[C@@H](O)[C@@H]1O (single isomer, unassigned) [Compound 23]	+ (+ means that the % of inhibition or activation is in the range of 15-25%)	+ (+ means that the % of inhibition or activation is in the range of 15-25%)							IL-1β response [1]: increased; TNF-α response [1]: increased; anti-inflammatory cytokine IL-10 [1]: decreased
	CC(=O)NC1[C@H](Oc2ccc(N3CCN(C(C)=O)CC3)cc2)O[C@H](CO)[C@@H](O)[C@@H]1O (single isomer, unassigned) [Compound 28]	+ (+ means that the % of inhibition or activation is in the range of 15-25%)		++ (++ means that the % of inhibition or activation is in the range of 25-75%)						
	CC(=O)N[C@H]1[C@H](Oc2ccc3nonc3c2)O[C@H](CO)[C@@H](O)[C@H]1O (stereo in doubt) [Compound 17, N-((2S,3R,4S,5S,6R)-2-(benzo[c][1,2,5]oxadiazol-5-yloxy)-4,5-dihydroxy-6-(hydroxymethyl)tetrahydro-2H-pyran-3-yl)acetamide]			++ (++ means that the % of inhibition or activation is in the range of 25-75%)	not toxic	not toxic	significantly decreased	++ (++ means that the % of inhibition or activation is in the range of 25-75%)	+++ (+++ means that the % of inhibition or activation is in the range of 75-95%)	IL-1β response [1]: increased; TNF-α response [1]: increased; anti-inflammatory cytokine IL-10 [1]: decreased
potent TLR2/4 antagonists	CC(=O)N[C@@H]1[C@@H](OC(C)=O)[C@H](OC(C)=O)[C@@H](COC(C)=O)O[C@H]1NC(=O)c1ccc(O[C@@H]2O[C@H](CO)[C@@H](O)[C@H](O)[C@H]2NC(C)=O)cc1 [Compound 2]	++ (++ means that the % of inhibition or activation is in the range of 25-75%)	+++ (+++ means that the % of inhibition or activation is in the range of 75-95%)		not toxic	not toxic	significantly decreased	+ (+ means that the % of inhibition or activation is in the range of 15-25%)	+++ (+++ means that the % of inhibition or activation is in the range of 75-95%)	
potent TLR2/4 antagonists	CC(=O)N[C@@H]1[C@@H](O)[C@H](O)[C@@H](CO)O[C@H]1NC(=O)c1ccc(O[C@@H]2O[C@H](CO)[C@@H](O)[C@H](O)[C@H]2NC(C)=O)cc1 [Compound 3]	++ (++ means that the % of inhibition or activation is in the range of 25-75%)	+++ (+++ means that the % of inhibition or activation is in the range of 75-95%)					++ (++ means that the % of inhibition or activation is in the range of 25-75%)	+++ (+++ means that the % of inhibition or activation is in the range of 75-95%)	TLR4 inhibition in vivo ([3]; neonatal pups with BPD): inhibit; lung architecture ([3]; saline (IV) and nanosuspension (IN) formulation): restored
potent TLR2/4 antagonists	CC(=O)N[C@H]1[C@H](Oc2ccc(C(=O)Nc3ccc(O[C@@H]4O[C@H](COC(C)=O)[C@@H](OC(C)=O)[C@H](OC(C)=O)[C@H]4NC(C)=O)cc3)cc2)O[C@H](CO)[C@@H](O)[C@@H]1O [Compound 6]	++ (++ means that the % of inhibition or activation is in the range of 25-75%)	+++ (+++ means that the % of inhibition or activation is in the range of 75-95%)		not toxic		significantly decreased			
potent TLR2/4 antagonists	CC(=O)N[C@H]1[C@H](Oc2ccc(NC(=O)c3ccc(O[C@@H]4O[C@H](CO)[C@@H](O)[C@H](O)[C@H]4NC(C)=O)cc3)cc2)O[C@H](CO)[C@@H](O)[C@@H]1O [Compound 7]	+++ (+++ means that the % of inhibition or activation is in the range of 75-95%)	+++ (+++ means that the % of inhibition or activation is in the range of 75-95%)		not toxic	not toxic	significantly decreased	++ (++ means that the % of inhibition or activation is in the range of 25-75%)	+++ (+++ means that the % of inhibition or activation is in the range of 75-95%)	
	CC(=O)N[C@H]1[C@H](Oc2ccc([N+](=O)[O-])cc2Cl)O[C@H](CO)[C@@H](O)[C@@H]1O [Compound 11]	+ (+ means that the % of inhibition or activation is in the range of 15-25%)	+ (+ means that the % of inhibition or activation is in the range of 15-25%)							
potent TLR2/4 antagonists	CC(=O)N[C@H]1[C@H](Oc2ccc(C#N)cc2)O[C@H](CO)[C@@H](O)[C@@H]1O [Compound 14, p-Cyanophenyl 2-acetamido-2-deoxy-β-D-glucopyranoside]				not toxic	not toxic	significantly decreased			% inhibition over control TLR4 (TLR4; Concentration 1 µM): +++ (+++ means that the % of inhibition or activation is in the range of 75-95%); % inhibition over control TLR4 (TLR4; Concentration 100 µM): +++ (+++ means that the % of inhibition or activation is in the range of 75-95%); IL-1β response [1]: increased; TNF-α response [1]: increased; anti-inflammatory cytokine IL-10 [1]: decreased
	CC(=O)N[C@H]1[C@H](Oc2ccc3c(C)cc(=O)oc3c2)O[C@H](COS(=O)(=O)O)[C@@H](O)[C@@H]1O [Compound 30]	+ (+ means that the % of inhibition or activation is in the range of 15-25%)		+ (+ means that the % of inhibition or activation is in the range of 15-25%)						% activation over control TLR4 (TLR4; Concentration 1-10 µM): + (+ means that the % of inhibition or activation is in the range of 15-25%)
	COc1ccc(O[C@@H]2O[C@H](CO)[C@@H](O)[C@H](O)[C@H]2NC(C)=O)cc1 [Compound 38]								++ (++ means that the % of inhibition or activation is in the range of 25-75%)	
	colistin [reference compound]									Re-epithelialization and granulation tissue ([4]; H&E histology, day 13 post-injury, vs controls, p=0.050 (Colistin, compound 1), p=0.073 (compound 8)): significantly enhanced; closure of P. aeruginosa infected skin wounds ([4]; topical, each alternate day, day 13, compounds 100µM / 100µg /ml, Colistin 4µg/ml): complete closure

Compound	TLR2/4 antagonist activity (TLR4; summary in words)	% inhibition over control TLR4 (TLR4; Concentration 1-10 µM)	% inhibition over control TLR4 (TLR4; Concentration 75-100 µM)	% activation over control TLR4 (TLR4; Concentration 75-100 µM)	cytotoxicity in HUVECs (cell viability) (HUVECs)	cytotoxicity in hPBMC (cell viability) (hPBMC)	VEGF induced tube formation [2]	% inhibition over control TLR2 (TLR2; Concentration 1-10 µM)	% inhibition over control TLR2 (TLR2; Concentration 75-100 µM)	further results
CC(=O)NC1[C@H](Oc2ccc(B(O)O)cc2)O[C@H](CO)[C@@H](O)[C@@H]1O (single isomer, unassigned) [Compound 35, p-Boronic acid phenyl 2-acetamido-2-deoxy-β-D-glucopyranoside]	potent TLR2/4 antagonists	+++ (+++ means that the % of inhibition or activation is in the range of 75-95%)		++ (++ means that the % of inhibition or activation is in the range of 25-75%)						TLR4 modulatory activity (TLR4; summary in words): concentration dependent TLR4 modulatory activity
